Assay [1] relates to Methicillin Resistant Staphylococcus aureus strain USA 300 (NRS384). Kind of assay: MIC by broth micro-dilution (CLSI), S. aureus. In kind it is cell-based. To be noted: Staphylococcus aureus, MRSA / NRS 384 / USA300; MRSA USA 300 (NRS384); cation adjusted Mueller Hinton Broth + 0.002% Tween-80; 35° C., 22 hours; read-out: MIC (μg/mL) S. aureus. On the procedure: In vitro antimicrobial activity of each compound was determined by measuring minimal inhibitor concentrations (MICs) using the broth micro-dilution technique as approved by the Clinical and Laboratory Standards Institute (CLSI) (Methods for Dilution Antimicrobial Susceptibility Tests for Bacteria that Grow Aerobically; Approved Standard—Eighth Edition. CLSI document M07-A8. Wayne, Pa.: Clinical and Laboratroy Standards; 2009). Antibacterial activity was measure against two strains of bacteria: a Methicillin Resistant Staphylococcus aureus strain USA 300 (NRS384) and a strain of Escherichia coli MC4100 harboring the IMP4213, which results in increased outer-membrane permeability (B Martin and Silhavy T. Imp/OstA is required for cell envelope biogenesis in Escherichia coli. (2002) Molecular Microbiology, 45(5), 1289-1302). Cells were inoculated onto plates of Trypyticase Soy Agar or Luria Agar respectively and grown at 35° C. for 20 hours. Inocula suspensions were prepared by scraping cells into 1 ml of testing media (cation adjusted Mueller Hinton Broth supplemented with 0.002% v/v Tween-80) and diluting to a final OD600 nm of 0.01.
Test compounds were prepared in DMSO at a concentration of 10 mg/ml. These compound stocks were diluted into testing media at a concentration of 64 μg/ml and serial 2-fold dilutions were made in the same media, in 96-well U bottom microtiter dishes, for a total of 10 compound concentrations. Inocula suspensions were added to the 2-fold serial dilutions of test compounds to a final density of OD OD600 nm of 0.0005 and incubated at 35° C. for 22 hours.

In the next assay the target is T1, E. coli SPase (Escherichia coli, UniProt P00803).
T1 construct: Full length His-tagged E. coli and S. aureus SPase proteins were expressed in E. coli BL21; His tag; made in house; host or cells: E. coli BL21 (DE3)
The experiment in a line: SPase enzyme inhibition assay, fluorogenic peptide substrate, E. coli. In kind it is biochemical. As to the method:
(§1) Briefly, for expression of E. coli SPase, saturated overnight cultures grown in 20 ml of Luria-Bertani medium supplemented with ampicillin were subcultures into 1.5 L of Luria-Bertani, and shaken at 37° C. until an optical density at 600 nm of 0.4-0.5 was achieved. […] S. aureus SPase was expressed and purified similarly, with the following exceptions. […] Resin bound protein was washed in a similar buffer containing 1% Elugent in place of Triton X-100 prior to protein elution in wash buffer supplemented with 300 mM imidazole. […] All protein concentrations were determined by BCA assay.
(§2) Enzyme master solution was prepared by diluting Escherichia coli or Staphylococcus aureus SPase protein into reaction buffer to a final concentration of 3 nM or 10 nM respectively. Reaction buffer consisted of 20 mM NaKHPO4 pH 7.4, 100 mM NaCl, and 1% v/v Elugent™ detergent. Reactions were initiated by the addition of substrate to a final concentration of 20 μM. Reaction progress was monitored by measuring the increase in fluorescence signal (excitation at 314 nm, emission at 416 nm) using a SpectraMax M2 fluorescence microplate reader. […] Three-folder serial dilutions of test compounds, starting at 10 μM, were prepared in enzyme mix solution and incubated at room temperature for 10 minutes. Following this incubation, fluorogenic substrate was added to a final concentration of 20 μM and the increase in fluorescence, corresponding to substrate cleavage, was monitored continuously at room temperature for 1 hour. Initial reaction rates were calculated based on the rate of increase in fluorescence during the reaction. Reaction rates were plotted as a function of compound concentration, and IC50 values were determined nonlinear regression analysis (SoftMaxPro 5.4, Molecular Devices™) of the sigmoidal dose-response curve.

A further assay deals with T2, S. aureus SPase (Staphylococcus aureus, UniProt P0A070).
T2 construct: Full length His-tagged E. coli and S. aureus SPase proteins were expressed in E. coli BL21; His tag; made in house; host or cells: E. coli BL21 (DE3)
T2 sequence (P0A070 1-191): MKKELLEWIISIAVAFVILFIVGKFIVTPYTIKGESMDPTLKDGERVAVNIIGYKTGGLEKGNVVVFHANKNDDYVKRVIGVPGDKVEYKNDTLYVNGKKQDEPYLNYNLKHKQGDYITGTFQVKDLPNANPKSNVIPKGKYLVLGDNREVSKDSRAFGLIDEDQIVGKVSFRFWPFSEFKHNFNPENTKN
Kind of assay: SPase enzyme inhibition assay, fluorogenic peptide substrate, S. aureus. The format is biochemical. On the procedure: as §1, §2

Setting [2] is: 3 nM E. coli SPase, 20 μM substrate, 10 minutes pre-incubation, room temperature, read-out: IC 50 (nM) E. coli.

Structures are written as SMILES. Where two headings read alike, the source gives them in different places.

T1 sequence (P00803 whole entry): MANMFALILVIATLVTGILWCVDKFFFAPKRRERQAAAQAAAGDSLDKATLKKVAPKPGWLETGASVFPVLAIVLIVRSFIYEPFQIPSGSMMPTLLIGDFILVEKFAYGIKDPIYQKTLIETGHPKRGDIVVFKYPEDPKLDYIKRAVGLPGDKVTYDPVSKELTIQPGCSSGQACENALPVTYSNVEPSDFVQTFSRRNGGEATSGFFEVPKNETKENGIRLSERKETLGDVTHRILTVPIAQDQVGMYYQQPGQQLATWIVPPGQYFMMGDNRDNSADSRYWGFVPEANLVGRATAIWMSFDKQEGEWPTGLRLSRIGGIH

Consider `C[C@@H]1NC(=O)[C@@H](N(C)C(=O)[C@H](CCCCN)NC(=O)c2ccc(-c3ccc(Cl)cc3)cc2)c2ccc(O)c(c2)-c2cc(ccc2O)C[C@@H](C(=O)N[C@@H](C)C(=O)N2CCC[C@H]2C(N)=O)NC1=O` [Compound 132], for which the MIC in assay [1] was 6.1 µg/mL. Besides, the IC50 on E. coli SPase is 26 nM; against S. aureus SPase it was 5.9 nM.

As to `CCCCCCCCCCCCCC(=O)NCCC(=O)N[C@@H](CCCCN)C(=O)N(C)[C@@H]1C(=O)N[C@@H](C)C(=O)N[C@H](C(=O)O)Cc2ccc(O)c(c2)-c2cc1ccc2O` [Compound 105], the MIC in assay [1] is 0.63 µg/mL. In addition, the IC50 turned out to be 1.3 nM on E. coli SPase (setting [2]) and 16 nM at S. aureus SPase.

As for `CCCCc1ccc(-c2ccc(C(=O)NCCC(=O)N(C)[C@@H]3C(=O)N[C@@H](C)C(=O)N[C@H](C(=O)O)Cc4ccc(O)c(c4)-c4cc3ccc4O)cc2)cc1` [Compound 112], the MIC in assay [1] is greater than 64 µg/mL. For the same compound, the IC50 on E. coli SPase (setting [2]) was 850 nM; on S. aureus SPase it was 7200 nM.

Regarding `CCCCc1ccc(-c2ccc(C(=O)NC(C)CC(=O)N[C@@H](CCCCN)C(=O)N(C)[C@@H]3C(=O)N[C@@H](C)C(=O)N[C@H](C(=O)O)Cc4ccc(O)c(c4)-c4cc3ccc4O)cc2)cc1` (stereo partly drawn) [Compound 106], the MIC in assay [1] is 2 µg/mL. For the same compound, the results for the IC50 at E. coli SPase (setting [2]) and against S. aureus SPase were 2.9 nM and 8.8 nM, respectively.

Turning to `CCCCCCCC(=O)N[C@@H](CCCCN)C(=O)N(C)[C@@H]1C(=O)N[C@@H](C)C(=O)N[C@H](C(=O)NCB2O[C@@H]3C[C@@H]4C[C@@H](C4(C)C)[C@]3(C)O2)Cc2ccc(O)c(c2)-c2cc1ccc2O` [Compound 126], the MIC in assay [1] came out at 32 µg/mL. For the same compound, the IC50 on E. coli SPase was 13 nM; against S. aureus SPase, 130 nM.

For `CCCCc1ccc(-c2ccc(C(=O)NC(CCCCN)C(=O)N[C@H]3COCCCCOC[C@@H](C(=O)N[C@@H](C)B4O[C@@H]5C[C@@H]6C[C@@H](C6(C)C)[C@]5(C)O4)NC(=O)[C@H](C)NC3=O)cc2)cc1` (mixture of isomers) [Compound 206], the MIC in assay [1] was 4 µg/mL. Also, the IC50 on E. coli SPase (setting [2]) came out at 81 nM; on S. aureus SPase, 600 nM.

In the case of `CCCCc1ccc(-c2ccc(C(=O)N(C)[C@@H]3C(=O)N[C@@H](C)C(=O)N[C@H](C(=O)O)Cc4ccc(O)c(c4)-c4cc3ccc4O)cc2)cc1` [Compound 116], the MIC in assay [1] is greater than 64 µg/mL. For the same compound, the IC50 on E. coli SPase (setting [2]) and on S. aureus SPase was greater than 10000 nM in each case.

For the compound `CCCCc1ccc(-c2ccc(C(=O)N[C@@H](CCCCN)C(=O)N(C)[C@@H]3C(=O)N[C@@H](C)C(=O)N[C@H](C(=O)N[C@@H](C)B4O[C@@H]5C[C@@H]6C[C@@H](C6(C)C)[C@]5(C)O4)Cc4ccc(O)c(c4)-c4cc3ccc4O)cc2)cc1` [Compound 121], the MIC in assay [1] is 0.71 µg/mL. Further, the IC50 at E. coli SPase (setting [2]) came out at 29 nM; against S. aureus SPase, 110 nM.

Turning to `CCCCc1ccc(-c2ccc(CC(=O)NCCC(=O)N[C@@H](CCCCN)C(=O)N(C)[C@@H]3C(=O)N[C@@H](C)C(=O)N[C@H](C(=O)O)Cc4ccc(O)c(c4)-c4cc3ccc4O)cc2)cc1` [Compound 101], the MIC in assay [1] is 6.3 µg/mL. For the same compound, the IC50 at E. coli SPase (setting [2]) was determined as 5.4 nM; on S. aureus SPase, 30 nM.

For `CCCCc1ccc(-c2ccc(C(=O)N[C@@H](CCCCN)C(=O)N(C)[C@@H]3C(=O)N[C@@H](C)C(=O)N[C@H](C(=O)N[C@@H](C)B4O[C@@H]5C[C@@H]6C[C@@H](C6(C)C)[C@]5(C)O4)CCCCc4cc3ccc4OC)cc2)cc1` [Compound 209], the MIC in assay [1] was 4 µg/mL. Also, the IC50 on E. coli SPase came to 84 nM; against S. aureus SPase, 3700 nM.

Turning to `C[C@@H]1NC(=O)[C@@H](N(C)C(=O)[C@H](CCCCN)NC(=O)c2ccc(-c3ccc(Cl)cc3)cc2)c2ccc(O)c(c2)-c2cc(ccc2O)C[C@@H](C(=O)N[C@@H](C)C=O)NC1=O` [Compound 134], in assay [1], the MIC turned out to be 10 µg/mL. The IC50 on E. coli SPase (setting [2]) was determined as 0.8 nM; against S. aureus SPase, 8.2 nM.
